Measured values published in PubChem BioAssay (NCI).
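Step 1: Grow cells in 96-well plates. Step 2: Expose to compound for 48 hours at 5 concentrations. Step 3: Interpolate endpoints linearly; if unreached, use highest concentration. Here, GI50 denotes the concentration required for 50% inhibition of growth. TGI marks complete inhibition of growth.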

Experiments:
Assay in all cases: DTP human tumour cell line panel, 48 h
SK-MEL-5 melanoma = system: SK-MEL-5 melanoma
HCT-15 colon = system: HCT-15 colon
SN12C renal = system: SN12C renal
SNB-75 CNS = system: SNB-75 CNS
LOX IMVI melanoma = system: LOX IMVI melanoma
CCRF-CEM leukemia = system: CCRF-CEM leukemia
U251 CNS = system: U251 CNS
NCI-H226 lung = system: NCI-H226 lung
SF-295 CNS = system: SF-295 CNS
COLO 205 colon = system: COLO 205 colon

Compound | GI50 (SK-MEL-5 melanoma) [µM] | TGI (SK-MEL-5 melanoma) [µM] | GI50 (HCT-15 colon) [µM] | TGI (HCT-15 colon) [µM] | GI50 (SN12C renal) [µM] | TGI (SN12C renal) [µM] | GI50 (SNB-75 CNS) [µM] | TGI (SNB-75 CNS) [µM] | GI50 (LOX IMVI melanoma) [µM] | TGI (LOX IMVI melanoma) [µM] | GI50 (CCRF-CEM leukemia) [µM] | TGI (CCRF-CEM leukemia) [µM] | GI50 (U251 CNS) [µM] | TGI (U251 CNS) [µM] | GI50 (NCI-H226 lung) [µM] | TGI (NCI-H226 lung) [µM] | GI50 (SF-295 CNS) [µM] | TGI (SF-295 CNS) [µM] | GI50 (COLO 205 colon) [µM] | TGI (COLO 205 colon) [µM]
CSC1=Nc2c(c(C)c(-c3ccccc3)n2COC(CO)CO)C2=NC(=O)CC(C)N12 (stereo not drawn) | > 100 | > 100 | > 100 | > 100 | > 100 | > 100 | 85.3 | > 100 | > 100 | > 100 | > 100 | > 100 | > 100 | > 100 | > 100 | > 100 | > 100 | > 100 | > 100 | > 100
C[As](C)SC1OCC(O)C(O)C1O (stereo not drawn) | 0.166 | 0.382 | 0.107 | 0.611 | 0.226 | 0.868 | 0.805 | 2.36 | 0.199 | 0.566 | 0.4 | 6.42 | 0.46 | 1.71 | 0.68 | 2.19 | 7.18 | – | 0.747 | 3.37
COc1cc2cc(Oc3cccc(NC(=O)Nc4cc(C(F)(F)F)cc(C(F)(F)F)c4)c3)c(C)nc2cc1OC | 1.62 | 3.28 | 0.668 | 2.04 | 0.591 | 2.09 | 1.73 | 5.05 | 1.44 | 2.96 | 0.641 | 3.47 | 1.08 | 2.47 | 1.8 | 3.91 | 0.481 | 1.94 | 1.79 | 3.58
CCOC(=O)c1c(CN2CCN(C)CC2)nc2ccc(Cl)cc2c1-c1ccccc1 | 1.72 | 3.18 | 5.42 | 20.9 | 11.6 | 25.9 | 2.15 | 8.95 | 4.52 | 16.1 | 7.17 | 28.9 | 8.26 | 23 | 15.6 | 34.9 | 3.27 | 9.95 | 1.71 | 3.57
CCCCC1(C(NC(=O)c2ccccc2Cl)c2ccncc2)C(=O)N(c2ccccc2)N(c2ccccc2)C1=O (stereo not drawn) | – | 60 | – | > 100 | – | > 100 | – | 71.4 | – | > 100 | – | > 100 | – | > 100 | – | > 100 | – | > 100 | – | 52.6
COc1ccc(/C=N/NS(=O)(=O)c2ccccc2)cc1 | – | > 100 | – | > 100 | – | > 100 | – | > 100 | – | > 100 | – | > 100 | – | > 100 | – | > 100 | – | > 100 | – | > 100
COc1ccc(Br)c(C(=O)N2CCc3ccccc32)c1N | – | > 100 | – | > 100 | – | > 100 | – | 90.3 | – | > 100 | – | > 100 | – | > 100 | – | > 100 | – | > 100 | – | > 100
O=c1cccc(Cl)[nH]1 | – | > 100 | – | > 100 | – | > 100 | – | > 100 | – | > 100 | – | > 100 | – | > 100 | – | > 100 | – | > 100 | – | > 100
CC1(C)OC(=O)C(=C2CCC(C(=O)Nc3cccc(C(F)(F)F)c3)N2)C(=O)O1 (stereo not drawn) | – | > 100 | – | > 100 | – | > 100 | – | > 100 | – | > 100 | – | > 100 | – | > 100 | – | > 100 | – | > 100 | – | > 100
CC1(C)N=C(N)N=C(N)N1c1cccc(CCc2ccccc2)c1 | 0.429 | 8.82 | 45.6 | > 100 | 0.456 | > 100 | 0.707 | 46.4 | 0.269 | > 100 | 0.566 | > 100 | 0.113 | > 100 | 3.42 | > 100 | 0.604 | > 100 | 0.574 | 16.9
Nn1c(-c2ccc(Cl)cc2)nc2c(-c3ccc(Cl)cc3)nc3ccc(Cl)cc3c2c1=O | 56.6 | > 100 | > 100 | > 100 | 7.46 | > 100 | 4.79 | 19.5 | 5.77 | 32.9 | – | 1.11 | 3.07 | 12.7 | 40.8 | > 100 | 13.3 | 34.4 | 19.5 | > 100
CNC(=O)OCc1nc(SC)n(C)c1COC(=O)NC | – | 327 | – | 410 | – | 309 | – | 349 | – | 364 | – | 494 | – | 599 | – | 400 | – | 551 | – | 295
O=C(/C=C/c1ccccc1O)c1ccccc1Cl | – | > 100 | – | > 100 | – | > 100 | – | 68.8 | – | 73.6 | – | 88.5 | – | > 100 | – | > 100 | – | > 100 | – | > 100
CCn1c(-c2nonc2N)nc2cnc(Oc3cccc(NC(=O)c4ccc(N(C)C)cc4)c3)cc21 | > 25 | > 25 | 8.55 | > 25 | > 25 | > 25 | 0.106 | > 25 | > 25 | > 25 | 1.82 | > 25 | > 25 | > 25 | > 25 | > 25 | 12 | > 25 | > 13.5 | > 25
Cc1cc(NN=C(c2ccc(O)cc2)c2ccc(O)cc2)c([N+](=O)[O-])cc1[N+](=O)[O-] | 0.308 | 3.74 | 4.19 | 53.6 | 6.79 | 24.7 | 6.84 | 60.5 | 3.8 | 21.2 | 3.33 | 34 | 5.39 | 81.2 | 7.76 | 40.1 | 4.91 | 22.2 | 5.87 | 40.5
